Measured values from patent publication US20200206198A1, “CFTR CHANNEL ACTIVATOR FOR USE IN THE TREATMENT AND/OR PREVENTION OF GLUTEN SENSITIVITY CONDITIONS” (priority 2017, published 2020).
Where a SMILES comes first, the peptide text is derived from it. [ ]: non-standard residue; d: D form. The star is where a group is joined. DON = [N-]=[N+]=CC(=O)CC[C@H](N)C(=O)O; Cbz = O=C(OCc1ccccc1)*

Experiments:
[1] = tested on: recombinant human NBD1 (rhNBD1); experiment: Surface plasmon resonance peptide-protein interaction; assay type: binding; settings: rhNBD1 immobilized on chip, different peptide concentrations
Experimental: Peptide-protein interactions were studied using a Biacore™ T100 (GE Healthcare) instrument. hrNBD1 domain or the indicated biotinylated peptides were immobilized by thiol coupling on a CMS (series S) sensor chip to a final density of 2000 resonance units (RU) or by biotin-streptavidin capture on a SA (series S) sensor chip to a final density of 250 RU, respectively. A flow cell with no immobilized protein or peptide was used as control. Binding analysis was carried out at 20° C. in a running buffer consisting of 10 mM HEPES, pH 7.4, 150 mM NaCl, 0.05% (v/v) Tween-20, 2 mM ATP, 5 mM MgCl2, 1 mM DTT applying a flow rate of 20 μl/min. For each experiment a Biacore™ method program was used. It included a series of three start up injections (running buffer), zero control (running buffer) and different concentrations of ligand. […] Each sensorgram (time-course of the surface plasmon resonance signal) was corrected for the response obtained in the control flow cell and normalized to baseline. Data were analysed using the 2.0.3 BIAevaluation software (GE Healthcare). At least three independent experiments for each analysis were performed.
FIG. 2: a, Protein-Protein docking and Molecular Dynamics of P31-43 (violet) bound to NBD1 (orange). Left side: general view of P31-43 and NBD1 interaction. Upper right: detailed interaction pattern, highlighting the most important amino acids. Lower right: in silico NBD1/P31-43 complex compared to the original crystallographic positions of Tip 401 and ATP. b, Graphical view of the in silico sampling percentage of P31-43 against NBD1/NBD2 (left 10 panel), and of P31-43/4QA (4QA) against NBD1 (right panel). c-d, Surface plasmon resonance (SPR) analysis of rhNBD1 binding to P31-43 and P57-68 biotinylated peptides immobilized on SA sensor chip (c) and of increasing concentrations of P31-43 and P57-68 peptides 15 on rhNBD1 covalently bound to the CMS sensor chip (d).

CFTR [2] = target: T1, CFTR (Homo sapiens, UniProt P13569); experiment: Co-immunoprecipitation of biotinylated peptides with CFTR in Caco-2 cells; assay type: cell-based; settings: 1 h with biotinylated peptides
T1 construct: Immunoprecipitations of endogenous proteins were performed on 500 μg of lysates from Caco-2 cells; host or cells: Caco-2, T84
Experimental: Human colon adenocarcinoma-derived Caco-2 and T84 cells were obtained from the ATCC. Cells were maintained in T25 flask in Modified Eagle Medium (MEM) for Caco-2, or Ham's F12+DMEM (1:1) for T84, supplemented with 10% fetal bovine serum (FBS), 2 mM Glutamine+1% Non Essential Amino Acids (NEAA) and the antibiotics penicillin\streptomycin (100 units/ml) (all reagents from Lonza) (Luciani, A., et al. 2010. Cells were grown in Transwells (Corning, 3470 or 3460) under the normal condition (Luciani, A., et al. 2012). Briefly, 8×10^4 or 5×10^5 cells were seeded in 6.5-mm diameter or 12-mm diameter, respectively, and grown until the RT reached 800 to 1,200 Ω·cm2. Transwells with a pore size of 0.4 μm were used. Medium in both the apical and basolateral chambers was changed every other day. […] Cells were also treated with 50 or 100 μg/ml of P57-68 or PGAV peptides for 3 h. Caco-2 or T84 cells were also treated with: CFTR potentiators VX-770 (10 μM) or VX-532 (20 μM) (Selleck chemicals) or Genistein (10 μM) (Sigma-Aldrich) or in presence or absence of CFTR inhibitor172 (CFTRinh172, 20 μM) or 3-methyl-adenine (3-MA, 20 μM) (Calbiochem), Z-DON (20 nM, Zedira) or BAPTA-AM (10 μM, Calbiochem).
The separation of endosomal fractions was performed as described^9 from treated and untreated cells. Protein of endosomal fraction were resolved by SDS-Page and blotted with primary antibodies against Rab-5(Abcam 18211) 1:500, Rab-7(Abcam 77993) 1:500, EEA-1 (Abcam 2900) 1:500, TG2 or CFTR. EEA-1 was used as early endosome marker. For detection of complex with biotnylated-P31-43, the beads were resolved in non-reducing and non-denaturating conditions, and then blotted with Streptavidin-HRP (Sigma S2438) 1:3000 or anti-biotin (Abcam ab2103) 1:2500.

CFTR [3] = target: T1, CFTR; experiment: CFTR channel function in intestinal epithelial cells (forskolin-induced Isc in Ussing chambers; SPQ iodide efflux); assay type: cell-based; settings: 20 μg/ml peptide; intestinal epithelial cells (Caco-2, T84)
Experimental: Human colon adenocarcinoma-derived Caco-2 and T84 cells (Barone, M. V. et al. 2014; Luciani, A. et al. 2010) were obtained from the ATCC. Cells were maintained in T25 flask in Modified Eagle Medium (MEM) for Caco-2, or Ham's F12+DMEM (1:1) for T84, supplemented with 10% fetal bovine serum (FBS), 2 mM Glutamine+1% Non Essential Amino Acids (NEAA) and the antibiotics penicillin\streptomycin (100 units/ml) (all reagents from Lonza). Caco-2 cells were grown in Transwells (Corning, 3470 or 3460) under the normal condition. Briefly, 8×10^4 or 5×10^5 cells were seeded in 6.5-mm diameter or 12-mm diameter, respectively, and grown until the RT reached 800 to 1,200 Ω·cm^2. Transwells with a pore size of 0.4 μm were used. Medium in both the apical and baso lateral chambers was changed every other day. Cells were treated with 20 μg/ml of either with the α-gliadin peptide comprising the P31-43 amino acid sequence of α-gliadin LGQQQPFPPQQPY (SEQ ID 1) (below referred to as P31-43), which is known to induce an enterocyte stress response (Meresse, B. et al.2009; Barone, M. V. et al. 2014; Luciani, A. et al. 2010), the T-cell activating α-gliadin peptide comprising the P57-68 amino acid sequence of α-gliadin (QLQPFPQPQLPY SEQ ID 2)) (below referred to as P57-68) (Maiuri, L., et al. 2003; Meresse, B. et al.2009; 30 Barone, M. V. et al. 2014), or the scrambled GAVAAVGVVAGA (SEQ ID 3) control peptide (below referred to as PGAV), or with different modified P31-43, either biotin-tagged or not, for different time points (from 1 h short challenge up to 24 h). Cells were also treated with 50 or 100 5 μg/ml of P57-68 or PGAV peptides for 3 h.
Caco-2 or T84 cells were also treated with: CFTR potentiators VX-770 (Ivacaftor) (10 μM) or VX-532 (20 μM) (Selleck chemicals) or Genistein (10 μM) (Verkman, A. S. et al. 2005; Jih, K. Y. et al. 2013) (Sigma-Aldrich) or in presence or absence of CFTR inhibitor172 (CFTRinh172, 20 μM).
Human colon adenocarcinoma-derived Caco-2 and T84 cells were obtained from the ATCC. Cells were maintained in T25 flask in Modified Eagle Medium (MEM) for Caco-2, or Ham's F12+DMEM (1:1) for T84, supplemented with 10% fetal bovine serum (FBS), 2 mM Glutamine+1% Non Essential Amino Acids (NEAA) and the antibiotics penicillin\streptomycin (100 units/ml) (all reagents from Lonza) (Luciani, A., et al. 2010. Cells were grown in Transwells (Corning, 3470 or 3460) under the normal condition (Luciani, A., et al. 2012). Briefly, 8×10^4 or 5×10^5 cells were seeded in 6.5-mm diameter or 12-mm diameter, respectively, and grown until the RT reached 800 to 1,200 Ω·cm2. Transwells with a pore size of 0.4 μm were used. Medium in both the apical and basolateral chambers was changed every other day. […]

TG2 = target: T2, TG2 (Homo sapiens, UniProt P21980); experiment: TG2 interaction and TG2 activity in Caco-2 cells; assay type: cell-based; settings: Caco-2 cells
T2 construct: Immunoprecipitations of endogenous proteins were performed on 500 μg of lysates from Caco-2 cells; host or cells: Caco-2
T2 sequence (P21980 1-687): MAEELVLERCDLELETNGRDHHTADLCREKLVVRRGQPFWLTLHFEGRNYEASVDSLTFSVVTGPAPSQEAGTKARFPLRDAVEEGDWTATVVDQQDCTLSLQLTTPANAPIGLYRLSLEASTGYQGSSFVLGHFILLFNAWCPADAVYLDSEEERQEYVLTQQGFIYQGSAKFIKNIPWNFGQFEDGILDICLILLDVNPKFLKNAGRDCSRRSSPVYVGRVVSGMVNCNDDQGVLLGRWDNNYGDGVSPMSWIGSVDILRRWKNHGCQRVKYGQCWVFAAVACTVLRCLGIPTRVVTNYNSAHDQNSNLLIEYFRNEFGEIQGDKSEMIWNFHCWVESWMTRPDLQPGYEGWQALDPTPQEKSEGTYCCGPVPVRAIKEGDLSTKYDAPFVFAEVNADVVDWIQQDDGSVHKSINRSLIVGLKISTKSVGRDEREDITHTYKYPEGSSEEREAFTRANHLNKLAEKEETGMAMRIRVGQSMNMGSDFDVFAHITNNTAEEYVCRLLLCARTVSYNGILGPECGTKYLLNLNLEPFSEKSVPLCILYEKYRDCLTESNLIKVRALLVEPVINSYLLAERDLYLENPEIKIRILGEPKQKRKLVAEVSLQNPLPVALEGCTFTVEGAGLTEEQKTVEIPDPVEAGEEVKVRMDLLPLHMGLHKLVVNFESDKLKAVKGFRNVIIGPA
Experimental: Human colon adenocarcinoma-derived Caco-2 and T84 cells were obtained from the ATCC. Cells were maintained in T25 flask in Modified Eagle Medium (MEM) for Caco-2, or Ham's F12+DMEM (1:1) for T84, supplemented with 10% fetal bovine serum (FBS), 2 mM Glutamine+1% Non Essential Amino Acids (NEAA) and the antibiotics penicillin\streptomycin (100 units/ml) (all reagents from Lonza) (Luciani, A., et al. 2010. Cells were grown in Transwells (Corning, 3470 or 3460) under the normal condition (Luciani, A., et al. 2012). Briefly, 8×10^4 or 5×10^5 cells were seeded in 6.5-mm diameter or 12-mm diameter, respectively, and grown until the RT reached 800 to 1,200 Ω·cm2. Transwells with a pore size of 0.4 μm were used. Medium in both the apical and basolateral chambers was changed every other day. Cells were treated with 20 μg/ml of either α-gliadin peptide P31-43 or […] or scrambled PGAV or modified P31-43 either biotin-tagged or not, for different time point (from 1 h short challenge up to 24 h). Cells were also treated with 50 or 100 μg/ml of P57-68 or PGAV peptides for 3 h. Caco-2 or T84 cells were also treated with: CFTR potentiators VX-770 (10 μM) or VX-532 (20 μM) (Selleck chemicals) or Genistein (10 μM) (Sigma-Aldrich) or in presence or absence of CFTR inhibitor172 (CFTRinh172, 20 μM) or 3-methyl-adenine (3-MA, 20 μM) (Calbiochem), Z-DON (20 nM, Zedira) or BAPTA-AM (10 μM, Calbiochem).
The whole lysate or membrane fraction proteins of cell lines and mice intestine homogenates were obtained from treated and untreated cells or mice as described. The equal amount of protein were resolved by SDS-PAGE gel and blotted with antibodies against: SQSTM1, (Sigma Aldrich, 108k4767) 1:1000, PPARγ (Santa Cruz Biotechnology, sc7273) 1:500, BECN1 (Abcam, ab58878) 1:1000, CFTR clone M3A7 (Abcam, ab4067) 1:500, phospho-ERK1/2 (php42/44, Cell Signaling Technology, #91101) 1:1000, UVRAG (Santa Cruz Biotechnology sc8215) 1:1000, NHERF-1 (BD, 611161) 1:1000, EZRIN (BD, 610603) 1:1000, hVps34 (SigmaV9764) 1:300, biotin (Abcam, ab1227) 1:2000, PKAr2a (BD, 610625) 1:500, Ubiquitin (Cell Signaling clone P4D1, #3936) 1:1000, CHIP (Calbiochem PC711) 1:500, Caspase-1 p10 (M-20) (Santa Cruz Biotechnology, sc-514) 1:200, NLRP3 (Abcam, ab4207), 1:500, IDO1 (monoclonal; cv152) 1:1000^[80], used as primary antibodies. Normalization was performed by probing the membrane with anti-β-actin (Cell Signaling, #4970) 1:1000, anti-Gapdh (Sigma-Aldrich, G8795) 1:1000 and anti-flottilin (Abcam ab15148) 1:1000 antibodies. Immunoprecipitations of endogenous proteins were performed on 500 μg of lysates from Caco-2 cells. The proteins were incubated for 12-18 h at 4° C. with 10 ug\ml of specific antibody followed by the addition of Protein A/G-agarose beads for 4 h at 4° C. The beads were then washed three times with lysis buffer and Laemmli's sample buffer was added to the samples. The membranes were then blotted with: CFTR clone CF3 (Abcam, ab2784) 1:1000, TG2 (clone CUB7402; NeoMarkers) 1:1000, CHIP (Calbiochem PC711) 1:500, Ubiquitin (Cell Signaling clone P4D1 3936), isopeptide (Abcam 422) 1:1000, PKAR2 (BD 610625) 1:500.
For detection of complex with biotnylated-P31-43 or immune-complex of glutamime-lysine bonds, the beads were resolved in non-reducing and non-denaturating conditions, and then blotted with Streptavidin-HRP (Sigma 52438) 1:3000 or anti-biotin (Abcam ab2103) 1:2500 and anti-isopeptide (Abcam 422) 1:1000.
TG2 enzymatic activity in Caco-2, treated as described above, was detected: 1) by incubating unfixed sections with biotin-mono-dansylcadaverine (MDC, 10 mM, Molecular Probe) for 1 h at room temperature and then stained with Alexa-fluor488-Streptavidin, as previously described (JI2008/2009) or 2) or by incorporation of 5(biotinamido)pentylamines (BAP) into protein substrates. For BAP-incorporation, 2 mM BAP (Soltec Ventures, B110) were directly added into the medium together with the indicated treatments. […]

T1 sequence (P13569 whole entry): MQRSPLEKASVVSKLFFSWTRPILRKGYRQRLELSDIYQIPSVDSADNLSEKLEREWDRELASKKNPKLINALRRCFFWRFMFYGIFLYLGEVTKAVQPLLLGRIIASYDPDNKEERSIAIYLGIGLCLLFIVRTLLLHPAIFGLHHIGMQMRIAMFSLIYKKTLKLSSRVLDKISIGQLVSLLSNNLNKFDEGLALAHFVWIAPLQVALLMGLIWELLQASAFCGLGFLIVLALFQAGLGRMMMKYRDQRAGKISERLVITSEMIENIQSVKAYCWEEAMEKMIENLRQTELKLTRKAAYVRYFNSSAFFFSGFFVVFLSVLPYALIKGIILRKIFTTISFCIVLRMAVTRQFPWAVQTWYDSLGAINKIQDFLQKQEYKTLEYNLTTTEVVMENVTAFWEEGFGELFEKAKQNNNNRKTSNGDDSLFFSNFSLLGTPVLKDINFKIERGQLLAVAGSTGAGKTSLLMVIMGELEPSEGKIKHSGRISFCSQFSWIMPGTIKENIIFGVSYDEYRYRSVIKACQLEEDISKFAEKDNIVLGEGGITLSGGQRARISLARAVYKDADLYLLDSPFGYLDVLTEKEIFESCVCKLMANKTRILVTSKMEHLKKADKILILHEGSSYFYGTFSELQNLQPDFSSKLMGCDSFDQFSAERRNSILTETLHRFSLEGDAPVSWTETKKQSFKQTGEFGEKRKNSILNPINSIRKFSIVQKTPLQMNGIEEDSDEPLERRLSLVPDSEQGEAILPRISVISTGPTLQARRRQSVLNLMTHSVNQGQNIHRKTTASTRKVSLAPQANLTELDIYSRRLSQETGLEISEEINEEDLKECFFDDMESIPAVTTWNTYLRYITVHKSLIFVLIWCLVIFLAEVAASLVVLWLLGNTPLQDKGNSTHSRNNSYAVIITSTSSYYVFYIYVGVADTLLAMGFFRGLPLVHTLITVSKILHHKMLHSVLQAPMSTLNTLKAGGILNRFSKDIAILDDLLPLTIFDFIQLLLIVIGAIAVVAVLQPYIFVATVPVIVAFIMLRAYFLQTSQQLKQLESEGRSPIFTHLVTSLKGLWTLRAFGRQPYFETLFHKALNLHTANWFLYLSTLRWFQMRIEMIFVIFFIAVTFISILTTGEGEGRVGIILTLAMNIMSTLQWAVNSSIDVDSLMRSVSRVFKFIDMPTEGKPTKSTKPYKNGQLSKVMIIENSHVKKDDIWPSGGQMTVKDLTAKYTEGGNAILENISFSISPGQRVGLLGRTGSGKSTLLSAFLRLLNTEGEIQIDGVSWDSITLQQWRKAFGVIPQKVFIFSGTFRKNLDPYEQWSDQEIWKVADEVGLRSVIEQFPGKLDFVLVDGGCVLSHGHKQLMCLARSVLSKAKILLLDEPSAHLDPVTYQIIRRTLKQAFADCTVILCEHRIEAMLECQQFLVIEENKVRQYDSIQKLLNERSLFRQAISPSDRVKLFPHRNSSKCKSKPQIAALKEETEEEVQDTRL

| Compound | SPR signal on immobilized rhNBD1 [1] | interaction (co-immunoprecipitation) with CFTR (CFTR [2]) | interaction (co-immunoprecipitation) with CFTR (CFTR [2]; listed as Q4A) | reduction of CFTR channel function in response to forskolin (CFTR [3]) | effect on P31-43-induced interaction of TG2 and CFTR (TG2) |
| --- | --- | --- | --- | --- | --- |
| 4QA: P31-43 with glutamines at residues 4, 5, 10 and 11 substituted with alanines, LGQAAPFPPAAPY (SEQ ID 4) (P31-43 sequence of alpha gliadin with glutamine residues at positions 4, 5, 10 and 11 substituted with alanines) | failed to interact with NBD1 | failed to interact with CFTR | did not co-immunoprecipitate with CFTR | failed to interact with CFTR and to inhibit its function |  |
| CC(=O)OCOC(=O)CN(CC(=O)OCOC(C)=O)c1ccccc1OCCOc1ccccc1N(CC(=O)OCOC(C)=O)CC(=O)OCOC(C)=O [BAPTA-AM] |  |  |  |  | prevented |
| COC(=O)[C@H](CC(C)C)NC(=O)[C@@H]1CCCN1C(=O)[C@@H](NC(=O)[C@H](CCC(=O)C=[N+]=[N-])NC(=O)OCc1ccccc1)C(C)C [Z-DON] (Cbz-[DON]VPL-OMe) |  |  |  |  | prevented |
| P57-68: T-cell activating α-gliadin peptide QLQPFPQPQLPY (SEQ ID 2) (P57-68 sequence of alpha-gliadin) | failed to induce any signal |  |  |  |  |
